Experimental findings from ChEMBL document CHEMBL1150005, “Reduced amide bond neurotensin 813 mimetics with potent in vivo activity” (Bioorg Med Chem Lett, 1995) are described below.

Test [1] relates to HT-29. As to the kind of experiment: Compound was tested in vitro to mobilize calcium from HT-29 cells. Type of test: functional, cell-based. The conditions noted are these: Homo sapiens.
Test [2] relates to Mus musculus. As to the kind of experiment: Analgesic activity was evaluated in the acetic acid induced stretching paradigm after subcutaneous administration. The conditions noted are these: sc. It counts as functional.
In test [3] the test system is Mus musculus. As to the kind of experiment: Compound was tested in vivo for its ability to inhibit spontaneous locomotor activity of mice; intraperitoneal administration. It counts as functional. The conditions noted are these: ip.
Test [4] relates to Mus musculus. Briefly: Compound was tested in vivo for its ability to inhibit spontaneous locomotor activity of mice after intraperitoneal administration. The conditions noted are these: ip. Type of test: functional.
Test [5] concerns the target T1, Neurotensin receptor type 1 (Mus musculus, UniProt O88319). As to the kind of experiment: Binding affinity for Neurotensin Receptor.
The target of test [6] is T1, Neurotensin receptor type 1. Briefly: Compound was tested in vitro for its binding affinity against Neurotensin Receptor […].
The test system of test [7] is Mus musculus. Briefly: Compound was tested in vivo for its ability to inhibit spontaneous locomotor activity of mice after intracerebroventricular administration. Type of test: functional. The conditions noted are these: central.

Numbered stars: 1 amine (or outer) side, 2 acyl side, 3 side chain; on linkers, the order of the positions; unused ones are H or OH. Square brackets hold non-standard residues; d marks the D form. Peptide text beside a SMILES is read from it. * marks the point of attachment. X3 = NCCCC[C@@H](C(=O)[*:2])N(C[C@@H](N)CCCN=C(N)N)[*:1]; X1 = NCCCC[C@H](N)CN([C@@H](CCCCN)C(=O)[*:2])[*:1]; X2 = NCCCCCCN([C@@H](CCCCN)C(=O)[*:2])[*:1]; X6 = N=C(N)NCCCC(CCCNC(=N)N)C(=O)*; X7 = NC(N)=NCCCC(CCCN=C(N)N)C(=O)*; NMeR = CN[C@@H](CCCNC(=N)N)C(=O)O; Tle = CC(C)(C)[C@H](N)C(=O)O; X4 = NCCCCC(CCCCN)C(=O)*; X5 = NCCCC(CCCN)C(=O)*

For orientation: EC50 means the concentration giving half of the maximal effect. In general, ED50 refers to the dose that gives a 50% effect, or the effect in half of the subjects. A higher ED50 goes with weaker potency. One may read the Ki as a measure of affinity in units of concentration, obtained from inhibition or displacement. A higher Ki goes with a looser hold on the target.

T1 sequence (O88319 whole entry): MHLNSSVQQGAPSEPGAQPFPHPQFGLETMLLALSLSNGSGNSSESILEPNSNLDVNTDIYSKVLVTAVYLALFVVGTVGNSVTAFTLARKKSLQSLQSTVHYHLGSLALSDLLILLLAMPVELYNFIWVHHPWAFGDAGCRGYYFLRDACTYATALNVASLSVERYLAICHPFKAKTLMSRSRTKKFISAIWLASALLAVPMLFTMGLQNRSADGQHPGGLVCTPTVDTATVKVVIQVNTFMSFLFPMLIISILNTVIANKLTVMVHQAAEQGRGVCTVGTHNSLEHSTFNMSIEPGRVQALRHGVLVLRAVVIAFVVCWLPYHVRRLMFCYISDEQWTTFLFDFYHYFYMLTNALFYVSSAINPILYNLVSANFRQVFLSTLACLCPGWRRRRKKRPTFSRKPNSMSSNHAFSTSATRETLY

Take `CC[C@H](C)[C@H](NC(=O)[C@H](Cc1ccc(O)cc1)NC(=O)[C@@H]1CCCN1C(=O)[C@H](CCCNC(=N)N)NC(=O)[C@@H](N)CCCNC(=N)N)C(=O)N[C@@H](CC(C)C)C(=O)O` [listing 1 of 2 here]: the EC50 in test [1] turned out to be 4.21 nM.

Turning to `CC[C@H](C)[C@H](NC(=O)[C@H](Cc1ccc(O)cc1)NC(=O)[C@@H]1CCCN1C(=O)[C@H](CCCNC(=N)N)NC(=O)[C@@H](N)CCCNC(=N)N)C(=O)N[C@@H](CC(C)C)C(=O)O` [listing 2 of 2 here], the ED50 in test [2] and in test [3] was above 10 mg/kg each time.

In the case of `CC(C)C[C@H](NC(=O)[C@@H](NC(=O)[C@H](Cc1c[nH]c2ccccc12)NC(=O)[C@@H]1CCCN1C(=O)[C@@H](N)CCCCN)C(C)(C)C)C(=O)O` (H-KPW[Tle]L-OH), the 50% effective dose (ED50) in test [4] was above 10 mg/kg. The same compound returned a Ki in test [5] of 60 nM.

As to `CN[C@@H](CCCNC(=N)N)C(=O)N[C@@H](CCCCN)C(=O)N1CCC[C@H]1C(=O)N[C@@H](Cc1c[nH]c2ccccc12)C(=O)N[C@H](C(=O)N[C@@H](CC(C)C)C(=O)O)C(C)(C)C` (H-[NMeR]KPW[Tle]L-OH), the inhibition constant (Ki) in test [6] was determined as 0.064 nM.

For the compound `CC[C@H](C)[C@H](NC(=O)[C@H](Cc1c[nH]c2ccccc12)NC(=O)[C@@H]1CCCN1C(=O)[C@H](CCCCN)NC[C@@H](N)CCCCN)C(=O)N[C@@H](CC(C)C)C(=O)O` (H-[X1]PWIL-OH) [listing 1 of 2 here], in test [1], the EC50 is 110 nM. In test [5], this compound gave a Ki of 0.06 nM.

`CC[C@H](C)[C@H](NC(=O)[C@H](Cc1c[nH]c2ccccc12)NC(=O)[C@@H]1CCCN1C(=O)[C@H](CCCCN)NC[C@@H](N)CCCCN)C(=O)N[C@@H](CC(C)C)C(=O)O` (H-[X1]PWIL-OH) [listing 2 of 2 here] had an ED50 in test [4] of 6.3 mg/kg.

Turning to `CCOC(=O)[C@H](CC(C)C)NC(=O)[C@@H](NC(=O)[C@H](Cc1c[nH]c2ccccc12)NC(=O)[C@@H]1CCCN1C(=O)[C@H](CCCCN)NC[C@@H](N)CCCCN)C(C)(C)C` (H-[X1]PW[Tle]L-OEt) [listing 1 of 2 here], the EC50 in test [1] is 4500 nM. In addition, in test [5], the affinity, expressed as Ki, was 31.2 nM.

`CCOC(=O)[C@H](CC(C)C)NC(=O)[C@@H](NC(=O)[C@H](Cc1c[nH]c2ccccc12)NC(=O)[C@@H]1CCCN1C(=O)[C@H](CCCCN)NC[C@@H](N)CCCCN)C(C)(C)C` (H-[X1]PW[Tle]L-OEt) [listing 2 of 2 here] showed a median effective dose (ED50) in test [4] of 0.21 mg/kg.

In the case of `CC(C)C[C@H](NC(=O)[C@@H](NC(=O)[C@H](Cc1c[nH]c2ccccc12)NC(=O)[C@@H]1CCCN1C(=O)[C@H](CCCCN)NC[C@@H](N)CCCCN)C(C)(C)C)C(=O)O` (H-[X1]PW[Tle]L-OH) [listing 1 of 2 here], in test [1], the EC50 worked out at 362 nM. Moreover, the Ki in test [5] stood at 1.13 nM.

`CC(C)C[C@H](NC(=O)[C@@H](NC(=O)[C@H](Cc1c[nH]c2ccccc12)NC(=O)[C@@H]1CCCN1C(=O)[C@H](CCCCN)NC[C@@H](N)CCCCN)C(C)(C)C)C(=O)O` (H-[X1]PW[Tle]L-OH) [listing 2 of 2 here]: the 50% effect level in test [4] (ED50) was put at a dose of 0.14 mg/kg.

For the compound `CC[C@H](C)[C@H](NC(=O)[C@H](Cc1ccc(O)cc1)NC(=O)[C@@H]1CCCN1C(=O)[C@H](CCCCN)NC[C@@H](N)CCCCN)C(=O)N[C@@H](CC(C)C)C(=O)O` (H-[X1]PYIL-OH) [listing 1 of 2 here], the Ki in test [5] turned out to be 0.15 nM.

In test [4], `CC[C@H](C)[C@H](NC(=O)[C@H](Cc1ccc(O)cc1)NC(=O)[C@@H]1CCCN1C(=O)[C@H](CCCCN)NC[C@@H](N)CCCCN)C(=O)N[C@@H](CC(C)C)C(=O)O` (H-[X1]PYIL-OH) [listing 2 of 2 here] had an ED50 above 10 mg/kg.

Take `CC(C)C[C@H](NC(=O)[C@@H](NC(=O)[C@H](Cc1ccc(O)cc1)NC(=O)[C@@H]1CCCN1C(=O)[C@H](CCCCN)NC[C@@H](N)CCCCN)C(C)(C)C)C(=O)O` (H-[X1]PY[Tle]L-OH) [listing 1 of 2 here]: the EC50 in test [1] was 512 nM. This compound also showed a Ki in test [5] of 0.4 nM.

`CC(C)C[C@H](NC(=O)[C@@H](NC(=O)[C@H](Cc1ccc(O)cc1)NC(=O)[C@@H]1CCCN1C(=O)[C@H](CCCCN)NC[C@@H](N)CCCCN)C(C)(C)C)C(=O)O` (H-[X1]PY[Tle]L-OH) [listing 2 of 2 here] showed an ED50 in test [4] of 0.9 mg/kg.

Take `CCOC(=O)[C@H](CC(C)C)NC(=O)[C@@H](NC(=O)[C@H](Cc1c[nH]c2ccccc12)NC(=O)[C@@H]1CCCN1C(=O)[C@H](CCCCN)NCCCCCCN)C(C)(C)C` (H-[X2]PW[Tle]L-OEt) [listing 1 of 2 here]: in test [5], the Ki came to 27 nM.

For `CCOC(=O)[C@H](CC(C)C)NC(=O)[C@@H](NC(=O)[C@H](Cc1c[nH]c2ccccc12)NC(=O)[C@@H]1CCCN1C(=O)[C@H](CCCCN)NCCCCCCN)C(C)(C)C` (H-[X2]PW[Tle]L-OEt) [listing 2 of 2 here], the figures for the ED50 in test [2] and in test [3] were 0.05 mg/kg and 0.3 mg/kg, respectively.

For `CCOC(=O)[C@H](CC(C)C)NC(=O)[C@@H](NC(=O)[C@H](Cc1c[nH]c2ccccc12)NC(=O)[C@@H]1CCCN1C(=O)[C@H](CCCCN)NC[C@@H](N)CCCN=C(N)N)C(C)(C)C` (H-[X3]PW[Tle]L-OEt) [listing 1 of 2 here], the Ki in test [5] came to 437 nM.

As for `CCOC(=O)[C@H](CC(C)C)NC(=O)[C@@H](NC(=O)[C@H](Cc1c[nH]c2ccccc12)NC(=O)[C@@H]1CCCN1C(=O)[C@H](CCCCN)NC[C@@H](N)CCCN=C(N)N)C(C)(C)C` (H-[X3]PW[Tle]L-OEt) [listing 2 of 2 here], the values for the ED50 in test [7] and in test [3] were 1.6 mg/kg and 0.15 mg/kg, respectively.

For `CC(C)C[C@H](NC(=O)[C@@H](NC(=O)[C@H](Cc1c[nH]c2ccccc12)NC(=O)[C@@H]1CCCN1C(=O)[C@H](CCCCN)NC[C@@H](N)CCCN=C(N)N)C(C)(C)C)C(=O)O` (H-[X3]PW[Tle]L-OH) [listing 1 of 2 here], the Ki in test [5] came out at 17.1 nM.

As to `CC(C)C[C@H](NC(=O)[C@@H](NC(=O)[C@H](Cc1c[nH]c2ccccc12)NC(=O)[C@@H]1CCCN1C(=O)[C@H](CCCCN)NC[C@@H](N)CCCN=C(N)N)C(C)(C)C)C(=O)O` (H-[X3]PW[Tle]L-OH) [listing 2 of 2 here], the ED50 amounted to 0.3 mg/kg in test [2] and 0.48 mg/kg in test [3].

`CC(C)C[C@H](NC(=O)[C@@H](NC(=O)[C@H](Cc1c[nH]c2ccccc12)NC(=O)[C@@H]1CCCN1C(=O)C(CCCCN)CCCCN)C(C)(C)C)C(=O)O` (X4-PW[Tle]L-OH) [listing 1 of 2 here]: the affinity in test [5], expressed as Ki, was 3.8 nM.

In the case of `CC(C)C[C@H](NC(=O)[C@@H](NC(=O)[C@H](Cc1c[nH]c2ccccc12)NC(=O)[C@@H]1CCCN1C(=O)C(CCCCN)CCCCN)C(C)(C)C)C(=O)O` (X4-PW[Tle]L-OH) [listing 2 of 2 here], it took a dose of 0.6 mg/kg to reach the 50% effect level in test [4] (ED50).

In test [5], `CC(C)C[C@H](NC(=O)[C@@H](NC(=O)[C@H](Cc1c[nH]c2ccccc12)NC(=O)[C@@H]1CCCN1C(=O)C(CCCN)CCCN)C(C)(C)C)C(=O)O` (X5-PW[Tle]L-OH) [listing 1 of 2 here] gave a Ki of 17 nM.

In turn, `CC(C)C[C@H](NC(=O)[C@@H](NC(=O)[C@H](Cc1c[nH]c2ccccc12)NC(=O)[C@@H]1CCCN1C(=O)C(CCCN)CCCN)C(C)(C)C)C(=O)O` (X5-PW[Tle]L-OH) [listing 2 of 2 here] returned an ED50 in test [4] of 0.5 mg/kg.

Consider `CC(C)C[C@H](NC(=O)[C@@H](NC(=O)[C@H](Cc1c[nH]c2ccccc12)NC(=O)[C@@H]1CCCN1C(=O)C(CCCNC(=N)N)CCCNC(=N)N)C(C)(C)C)C(=O)O` (stereo partly drawn) (X6-PW[Tle]L-OH), for which the affinity in test [5] corresponds to a Ki of 0.1 nM.

In turn, `CC(C)C[C@H](NC(=O)[C@@H](NC(=O)[C@H](Cc1c[nH]c2ccccc12)NC(=O)[C@@H]1CCCN1C(=O)C(CCCN=C(N)N)CCCN=C(N)N)C(C)(C)C)C(=O)O` (X7-PW[Tle]L-OH) returned an ED50 in test [4] of 1.5 mg/kg.
